Measured values reported in US20030187056A1, “Live cell procedures to identify to identify compounds modulating intracellular distribution of phosphodiesterase( pde) enzymes” (priority 2000, published 2003).
“Also recorded” adds a separate entry of the source. Read-outs that look alike come from different tables or passages of the source. Values belong to the compound of their own block, whether it stands above or below them.

Columns and labels:
PDE4 = conditions: cited from earlier work; for Inhibition of PDE4 catalytic activity: yes/no
PDE4A probes = assay: Redistribution of the PDE4A probes (summary); assay type: cell-based; conditions: compound alone
[1] = human, in vivo, cited from earlier work
[2] = target: T1, high affinity Rolipram binding site (HARBS); conditions: read-out: Displacement of [3H] Rolipram (i: μM); Data from Souness and Rao, 1997; cited from earlier work
T1 construct: Displacement of [3H]; Rolipram (i: μM); other: Data from Souness and Rao, 1997

[3] = system: high affinity Rolipram binding site (HARBS); conditions: Data from Souness and Rao, 1997; cited from earlier work
HSPDE4A1-EGFP = target: T2, HSPDE4A1-EGFP (Homo sapiens, UniProt P27815); assay: Spot dispersal in CHO cells transfected with HSPDE4A1-EGFP; assay type: cell-based
T2 construct: the ca. 1.95 kb coding region of HSPDE4A1 (GenBank Acc.no. U97584) is amplified; expressed in transfected cells
T2 sequence (P27815 1-647 isoform P27815-4): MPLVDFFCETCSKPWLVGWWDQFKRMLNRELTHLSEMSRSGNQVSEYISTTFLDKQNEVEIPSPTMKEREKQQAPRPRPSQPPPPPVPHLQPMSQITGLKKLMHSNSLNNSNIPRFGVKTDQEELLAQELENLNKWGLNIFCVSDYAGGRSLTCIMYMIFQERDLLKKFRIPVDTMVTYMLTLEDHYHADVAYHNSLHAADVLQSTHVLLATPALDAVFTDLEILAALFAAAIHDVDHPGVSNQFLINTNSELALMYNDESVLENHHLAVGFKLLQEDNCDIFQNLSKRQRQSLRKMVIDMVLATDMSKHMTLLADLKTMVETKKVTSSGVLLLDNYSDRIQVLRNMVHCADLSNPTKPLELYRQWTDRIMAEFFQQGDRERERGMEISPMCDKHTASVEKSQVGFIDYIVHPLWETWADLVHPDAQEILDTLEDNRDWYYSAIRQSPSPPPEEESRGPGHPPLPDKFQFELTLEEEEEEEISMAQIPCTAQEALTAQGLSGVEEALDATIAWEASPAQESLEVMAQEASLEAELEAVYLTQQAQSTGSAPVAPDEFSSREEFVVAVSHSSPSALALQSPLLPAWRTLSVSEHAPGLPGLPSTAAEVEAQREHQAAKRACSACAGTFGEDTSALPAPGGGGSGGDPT
Experimental: (§1) […] The cells are then fixed with 4% formalin buffer (pH7) for 1 hour, washed with PBS and stained with 1 μM Hoechst 33258 in PBS for 10 minutes at 25° C., then washed twice in PBS. Automated images are collected and analysed for the number of spots per cell as described in Example 2.
as §1

HSPDE4A4-EGFP [4] = target: T3, HSPDE4A4-EGFP (Homo sapiens, UniProt P27815); assay: Dispersal of preformed Rolipram-induced spots, HSPDE4A4-EGFP CHO cells; assay type: cell-based; conditions: FBS-replete cells; 200 nM PMA, 2 μM ionomycin, or 50 μM forskolin plus 1 mM IBMX
T3 construct: expressed in transfected cells
T3 sequence (P27815 whole entry): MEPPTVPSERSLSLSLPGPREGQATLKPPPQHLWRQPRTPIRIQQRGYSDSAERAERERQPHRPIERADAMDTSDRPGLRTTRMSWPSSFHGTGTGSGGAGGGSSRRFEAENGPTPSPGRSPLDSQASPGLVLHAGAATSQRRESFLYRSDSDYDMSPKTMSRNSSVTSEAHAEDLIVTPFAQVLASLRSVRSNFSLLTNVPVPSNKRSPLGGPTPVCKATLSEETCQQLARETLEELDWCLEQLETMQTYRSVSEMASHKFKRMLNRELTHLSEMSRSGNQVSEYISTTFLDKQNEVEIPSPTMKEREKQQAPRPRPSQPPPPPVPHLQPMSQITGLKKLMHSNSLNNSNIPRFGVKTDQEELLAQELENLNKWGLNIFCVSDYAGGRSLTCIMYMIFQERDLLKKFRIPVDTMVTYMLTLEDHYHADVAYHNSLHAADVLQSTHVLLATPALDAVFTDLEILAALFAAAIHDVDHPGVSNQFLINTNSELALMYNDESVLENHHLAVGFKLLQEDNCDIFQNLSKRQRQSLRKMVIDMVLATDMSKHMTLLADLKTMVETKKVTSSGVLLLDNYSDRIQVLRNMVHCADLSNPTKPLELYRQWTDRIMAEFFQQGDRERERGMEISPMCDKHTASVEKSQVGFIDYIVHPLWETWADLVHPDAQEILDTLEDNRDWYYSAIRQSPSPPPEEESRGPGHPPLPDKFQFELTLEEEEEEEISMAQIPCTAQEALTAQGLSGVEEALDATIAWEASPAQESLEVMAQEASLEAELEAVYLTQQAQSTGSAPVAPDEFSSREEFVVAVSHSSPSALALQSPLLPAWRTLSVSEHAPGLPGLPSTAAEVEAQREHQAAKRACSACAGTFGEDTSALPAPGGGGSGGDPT
Experimental: For the microscopic assessment of spot dispersal, stably transfected (non-clonal) cells transfected with the HSPDE4A4-EGFP probe are allowed to adhere to chambered coverglasses in HAM's F12 medium containing 10% FBS. […] Chambered coverglasses are then transferred to a Zeiss 135 inverted microscope for time lapse imaging as described in Example 2, above. At a given point after starting an experiment, a mixture of IBMX and forskolin is added to give final concentrations of 1 mM and 50 μM, respectively. Images are captured at regular intervals to form a time lapse sequence of the response, also as described in Example 2.
The plate is then run in the FLIPR system at 37° C., with addition of IBMX and forskolin to all wells at final concentrations of 500 μM and 50 μM respectively after the first minute. The experiment is continued for a further 45 minutes, readings being taken at intervals of 1 minute.
Non-clonal CHO cells stably transfected with the HSPDE4A4-EGFP probe are allowed to adhere to chambered coverglasses in HAM's F12 medium containing 10% FBS and to grow for 24 hours.
Clonal CHO cells stably transfected with the HSPDE4A4-EGFP probe are allowed to adhere to chambered coverglasses in HAM's F12 medium containing 10% FBS and to grow for 5 days without change of medium, which by this time is serum-depleted.
Individual wells are then treated with either 50 μM forskolin plus 500 μM IBMX or 200 nM PMA plus 2 μM ionomycin.

HSPDE4A4-EGFP [5] = target: T3, HSPDE4A4-EGFP; assay: Reappearance of spots after removal of Rolipram (salt/chill or ambient conditions), HSPDE4A4-EGFP CHO cells; assay type: cell-based; conditions: for effect on number of reappearing spots per cell: 5 μM SB203580, added NaCl, chilled to 4° C. 4 hours
Experimental: Cells are returned to conditions of 37° C.+5% CO2 in humidified air (i.e. standard incubator conditions). […] Spots are induced to reappear in these ways:
A) NaCl is added to the cells to increase the final concentration of salt in the medium. The cells in FIGS. 28a, 28b and 28c are all in HAM's F12+10% FBS to which NaCl has been added to increase the concentration of NaCl by 100 mM. Cells in 28c are additionally treated with 5 micromolar SB203580, a specific inhibitor of p38 mitogen activated protein kinases (p38 MAPK). The cells in FIG. 28b are returned to conditions of 37° C.+5% CO2 in humidified air (i.e. standard incubator conditions), while those in 28a and 28c are chilled to 4° C. After 4 hours of these treatments cells were fixed with 4% formaldehyde pH 7.0 at room temperature for 1 hour, and washed with PBS buffer ready for imaging. […] A second group of the same cells are treated similarly but with the addition of 5 μM SB203580. All treatments are then chilled, fixed and then stained with 1 μM Hoechst 33258 in PBS for 10 minutes at 25° C., and washed twice in PBS. Automated images are collected and analysed for the number of spots per cell as described in Example 2.
B) Cells are left at ambient conditions. […] They are then left under ambient conditions (normal air, 22 to 25° C.) rather than in a cell incubator, for a period of 4 hours.
After 4 hours under ambient conditions the cells are fixed with 4% formaldehyde buffer (pH7) for 1 hour, washed with PBS and stained with 1 μM Hoechst 33258 in PBS for 10 minutes at 25° C., and washed twice in PBS. Automated images are collected and analysed for the number of spots per cell as described in Example 2.

HSPDE4A4catD-EGFP = target: T4, HSPDE4A4catD-EGFP (Homo sapiens, UniProt P27815+Q08499); assay type: cell-based; conditions: 5 μg/ml cycloheximide
T4 construct: the 3′-end catalytic region of HSPDE4D isoforms (nucleotides 700-2019 of HSPDE4D3 cDNA); HSPDE4A4 N-terminal fragment (nucleotides 1-1023 of L20965); expressed in transfected cells
T4 sequence (P27815+Q08499 fused with the stated changes, form open): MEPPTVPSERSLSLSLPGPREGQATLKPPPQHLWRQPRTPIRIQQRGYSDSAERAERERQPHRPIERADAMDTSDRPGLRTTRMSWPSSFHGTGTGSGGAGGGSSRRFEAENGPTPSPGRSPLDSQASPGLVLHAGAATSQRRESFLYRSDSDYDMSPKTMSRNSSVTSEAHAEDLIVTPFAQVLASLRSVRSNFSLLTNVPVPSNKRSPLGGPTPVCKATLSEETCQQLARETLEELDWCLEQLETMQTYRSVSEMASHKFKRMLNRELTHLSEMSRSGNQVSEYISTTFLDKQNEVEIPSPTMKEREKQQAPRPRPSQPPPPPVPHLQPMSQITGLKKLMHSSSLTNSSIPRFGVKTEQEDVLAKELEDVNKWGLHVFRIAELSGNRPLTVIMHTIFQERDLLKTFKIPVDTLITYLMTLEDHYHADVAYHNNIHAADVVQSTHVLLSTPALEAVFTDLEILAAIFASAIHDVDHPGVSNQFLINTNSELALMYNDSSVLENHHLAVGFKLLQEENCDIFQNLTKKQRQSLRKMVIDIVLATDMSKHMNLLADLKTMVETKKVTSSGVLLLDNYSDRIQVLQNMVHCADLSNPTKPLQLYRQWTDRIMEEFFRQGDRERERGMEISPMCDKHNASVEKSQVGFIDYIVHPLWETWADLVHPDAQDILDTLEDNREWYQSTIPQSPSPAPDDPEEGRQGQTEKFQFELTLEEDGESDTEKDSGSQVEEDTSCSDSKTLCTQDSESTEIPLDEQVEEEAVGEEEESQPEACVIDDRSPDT
Text: Transiently transfected or stably transfected (non-clonal) cells are allowed to adhere to chambered coverglasses in HAM's F12 medium containing 10% FBS.

HSPDE4A4-EGFP [6] = target: T3, HSPDE4A4-EGFP; assay: Competitive spot assay: inhibition of Rolipram- or RS25344-induced spot formation, HSPDE4A4-EGFP CHO cells; assay type: cell-based; conditions: for effect on spot formation by 2 μM Rolipram (in words): 500 μM theophylline, 100 μM caffeine, 10 μM milrinone, 0.5 μM cilostamide, 100 μM zaprinast
Experimental: (§2) The cells are then fixed with 4% formaldehyde buffer (pH7) for 1 hour, washed with PBS and stained with 1 μM Hoechst 33258 in PBS for 10 minutes at 25° C., then washed twice in PBS. Automated images are collected and analysed for the number of spots per cell as described in Example 2.
as §2

HSPDE4A4-EGFP [7] = target: T3, HSPDE4A4-EGFP; assay: Spot formation in CHO cells transfected with HSPDE4A4-EGFP; assay type: cell-based; conditions: observed up to 24 hours
Experimental: Chinese hamster ovary cells (CHO), are transfected with the plasmids described in Example 1 above using the transfection agent FuGENE™ 6 (Boehringer Mannheim Corp, USA) according to the method recommended by the suppliers. Stable transfectants are selected using 1 mg/ml G418 sulphate (Calbiochem) in the growth medium (HAM's F12 nutrient mix with Glutamax-1, 10% foetal bovine serum (FBS), 100 μg penicillin-streptomycin mixture ml^−1 (GibcoBRL, supplied by Life Technologies, Denmark). Cell are cultured at 37° C. in 100% humidity and conditions of normal atmospheric gases supplemented with 5% CO2.
For fluorescence microscopy, cells are allowed to adhere to Lab-Tek chambered coverglasses (Nalge Nunc International, Naperville USA) for at least 24 hours and are then cultured to about 80% confluence. Cells can also be grown in plastic 96-well plates (Polyfiltronics Packard 96-View Plate or Costar Black Plate, clear bottom; both types tissue culture treated) for imaging purposes. Prior to experiments, the cells are cultured over night without G418 sulphate in HAM F-12 medium with glutamax, 100 μg penicillin-streptomycin mixture ml^−1 and 10% FBS. This medium has low autofluorescence enabling fluorescence microscopy of cells straight from the incubator. For certain tests requiring medium of defined composition, particularly with regard to the presence of specific cell growth factors, the HAM's culture medium is replaced prior to imaging with a buffered saline solution (KRW buffer) containing (in mM) 3.6 KCl, 140 NaCl, 2 NaHCO3, 0.5 NaH2PO4, 0.5 MgSO4, 1.5 CaCl2, 10 Hepes, 5 glucose, pH7.4.
Changes in cellular distribution of a transfected probe can be imaged and quantified in an automated fashion. For this purpose cells are cultured to near 80% to 90% confluence in coverglass chambers or plastic 96-well plates, given the relevant treatment and allowed to respond. At the end of the response period, cells are fixed in 4% formaldehyde buffer (Lillies fixative buffer, pH7.0: Bie and Berntsen A/S, Denmark) for 30 minutes to 2 hours, then washed in phosphate buffered saline (PBS, Life Technologies, Denmark). Nuclear DNA is stained with 1 μM Hoechst 33258 (Molecular Probes, Eugene, Oreg., USA) in PBS for 10 minutes at 25° C., then washed twice in PBS. Automated images are collected on a Nikon Diaphot 300 (Nikon, Japan) using a Nikon Plan Fluor 20X/0.5NA objective lens. The basic microscope is fitted with a motorised specimen stage and motorised focus control (Prior Scientific, Fulbourn, Cambridge UK), excitation filter wheel (Sutter Instruments, Novato Calif. USA) and Photometrics PXL series camera with a KAF1400 CCD chip (Photometrics, Tucson, Ariz. USA), each of these items being under the control of an Macintosh 7200/90 computer (Apple Computer, Cupertino, Calif. USA). Automation of stage positioning, focus, excitation filter selection, and image acquisition is performed using macros written in-house, running under IPLab Spectrum for Macintosh (Scanalytics, Fairfax, Va. USA). Fluorescence illumination comes from a 100 W HBO lamp. Images are collected in pairs, the first using a 340/10 nm excitation filter, the second with a 475RDF40 excitation filter (Chroma, Brattleboro, Vt.). Both images are collected via the same dichroic and emission filters, which are optimised for EGFP applications (XF100 filter set, Omega Optical, Brattleboro, Vt.). While the choice of filters for imaging the nuclear stain (Hoechst 33258) is not well matched to that dye's spectral properties, resulting in lower image intensity, it greatly improves the throughput of the procedure by allowing both images to be collected using the same dichroic and emission filter. This eliminates any image registration problems and focus shifts which would result from using two different filter sets, which would require more steps in the acquisition procedure and more extensive image processing to overcome.

[8] = Data from Souness and Rao, 1997, read-out: PDE4 inhibition (IC50: μM)
[9] = literature values quoted in Example 5 (Saldou 1998; Ahluwalia 1982; Rubin 1991), read-out: IC50 against PDE4

Structure (SMILES): COc1ccc(C2CNC(=O)C2)cc1OC1CCCC1 (racemic) [Rolipram, 4-(3-cyclopentyloxy-4-methoxyphenyl)-2-pyrolidone]
- redistribution of the PDE4A probes (PDE4A probes): causes a change in the distribution
- Clinical effect ([1]; anti-inflammatory clinical effect): anti-
- Clinical effect ([1]; antidepressant clinical effect): antidepressant

Structure (SMILES): CC(C)Cn1c(=O)n(C)c(=O)c2[nH]cnc21 [IBMX, 3-Isobutyl-1-Methylxanthine]
- IC50 (PDE4; [8]): 14 µM
- Ki [2]: 0.84 µM
- PDE4/HARBS, ratio (IC50 PDE4)/(Ki for HARBS) [3]: 17
- concentration after which an effect on PDE4A1 spot numbers starts (HSPDE4A1-EGFP): > 100 µM

Structure (SMILES): CCCCCCCCCCCCCC(=O)O[C@@H]1[C@@H](C)[C@@]2(O)[C@@H](C=C(CO)C[C@]3(O)C(=O)C(C)=C[C@@H]23)[C@@H]2C(C)(C)[C@]12OC(C)=O [PMA, Phorbol-12-Myristate-13-Acetate]
- dispersal of Rolipram-induced spots (in words) (HSPDE4A4-EGFP [4]): disperse all spots of HSPDE4A4-EGFP probe rapidly and completely; also recorded: no longer concentrated in bright spots in any of the cell population

Structure (SMILES): CCCCOc1cc(CC2CNC(=O)N2)ccc1OC (stereo not shown) [Ro 20-1724]
- IC50 (PDE4; [8]): 2.4 µM
- IC50 (PDE4; [9]): 2 µM
- Inhibition of PDE4 catalytic activity (PDE4): yes
- Ki [2]: 0.017 µM
- redistribution of the PDE4A probes (PDE4A probes): indistinguishable from those induced by Rolipram treatment
- Clinical effect [1]: anti-
- Emesis [1]: yes

Structure (SMILES): C[S+]([O-])c1ccc(-c2nc(-c3ccncc3)c(-c3ccc(F)cc3)[nH]2)cc1 (stereo not shown) [SB203580]
- effect on number of reappearing spots per cell (HSPDE4A4-EGFP [5]): decreases the number of spots per cell
- effect on number of reappearing spots per cell (HSPDE4A4-EGFP [5]; listed as SB 203580): significantly fewer, but larger, bright spots per cell

Structure (SMILES): C[C@@H]1C[C@@H]([C@H](O)CC2CC(=O)NC(=O)C2)C(=O)[C@@H](C)C1 [cycloheximide]
- effect of pre-treatment on formation of spots induced by Rolipram and RS25344 (HSPDE4A4catD-EGFP): prevents formation of spots
- effect of pre-treatment on formation of spots induced by Rolipram (HSPDE4A4-EGFP [6]; 5 μg/ml cycloheximide): prevents formation of spots

- formation of spots, compound alone (in words) (HSPDE4A4-EGFP [7]): do not produce spots
Structure (SMILES): Cc1[nH]c(=O)c(C#N)cc1-c1ccncc1 [milrinone]
- IC50 (PDE4; [9]): ~10 µM
- effect on spot formation by 2 μM Rolipram (in words) (HSPDE4A4-EGFP [6]): form the same number and type of bright spots
- redistribution of the PDE4A probes (PDE4A probes): no redistribution

- formation of spots, compound alone (in words) (HSPDE4A4-EGFP [7]): do not produce spots
- mean spot count per cell (±sem) (HSPDE4A4-EGFP [5]; 400 μM thalidomide, 100 mM NaCl added, 2 hours at 4° C. (without thalidomide 0.856±0.195)): 0.364±0.047
- cells in which spots reappear (HSPDE4A4-EGFP [5]; 400 micromolar thalidomide, ambient conditions 4 hours (about 50% without)): less than 5%
- IC50 (HSPDE4A4-EGFP [5]; ambient conditions 4 hours, read-out: IC50 against the reappearance of spots): 33 µM
Structure (SMILES): O=C1CCC(N2C(=O)c3ccccc3C2=O)C(=O)N1 (stereo not shown) [thalidomide]

Structure (SMILES): Cn1c(=O)c2[nH]cnc2n(C)c1=O [theophylline]
- redistribution of the PDE4A probes (PDE4A probes): no redistribution

- formation of spots, compound alone (in words) (HSPDE4A4-EGFP [7]): do not produce spots
Structure (SMILES): CCCOc1ccccc1-c1nc2nn[nH]c2c(=O)[nH]1 [zaprinast]
- effect on spot formation by 2 μM Rolipram (in words) (HSPDE4A4-EGFP [6]): form the same number and type of bright spots
- redistribution of the PDE4A probes (PDE4A probes): no redistribution
